According to patent publication US8163777B2, “Benzimidazolyl-pyridine compounds for inflammation and immune-related uses” (Synta Pharmaceuticals Corp., priority 2006, dated 2012):

tested on: IL-2 production; experiment: Inhibition of IL-2 production in PHA-activated Jurkat cells (ELISA); assay type: cell-based; conditions: Homo sapiens, PHA 2.5 μg/mL, 20 hours, bin given with mixed units 500 nM-1 μM
Method: Jurkat cells were placed in a 96 well plate (0.5 million cells per well in 1% FBS medium) then test compounds of this invention were added at different concentrations. After 10 minutes, the cells were activated with PHA (final concentration 2.5 μg/mL) and incubated for 20 hours at 37° C. under CO2. The final volume was 200 μL. Following incubation, the cells were centrifuged and the supernatants collected and stored at −70° C. prior to assaying for IL-2 production. A commercial ELISA kit (IL-2 Eli-pair, Diaclone Research, Besancon, France) was used to detect production of IL-2, from which dose response curves were obtained. The IC50 value was calculated as the concentration at which 50% of maximum IL-2 production after stimulation was inhibited versus a non-stimulation control.

Row | IC50 [nM] | SMILES
1 | 500 to 1000 | COc1ccc2c(c1)nc(C(F)(F)F)n2-c1ccc(NC(=O)c2ccc(C)cc2C)nc1 [Compound 200, N-[5-(5-Methoxy-2-trifluoromethyl-benzoimidazol-1-yl)-pyridin-2-yl]-2,4-dimethyl-benzamide]
2 | 500 to 1000 | O=C(Nc1ccc(-n2c(C(F)(F)F)nc3ccccc32)cc1)c1cccnc1 [Compound 45, N-[4-(2-trifiuoromethyl-benzoimidazol-1-yl)-phenyl]-nicotinamide]
3 | 500 to 1000 | COc1ccc2c(c1)nc(C(F)(F)F)n2-c1ccc(NC(=O)Cc2ccccc2)cc1 [Compound 95, 2-phenyl-N-[4-(2-trifluoromethyl-5-methoxy-benzoimidazol-1-yl)-phenyl]-acetamide]
4 | 500 to 1000 | Nc1ccc(C(=O)Nc2ccc(-n3c(C(F)(F)F)nc4ccccc43)cc2)c(F)c1F [Compound 43, 2,3-Difluoro-4-amino-N-[4-(2-trifluoromethyl-benzoimidazol-1-yl)-phenyl]-benzamide]
5 | 500 to 1000 | COc1ccc2c(c1)nc(C(F)(F)F)n2-c1ccc(NC(=O)c2cccc(F)c2)nc1 [Compound 186, 3-Fluoro-N-[5-(5-methoxy-2-trifluoromethyl-benzoimidazol-1-yl)-pyridin-2-yl]-benzamide]
6 | 500 to 1000 | CC(=O)Nc1ccc2nc(C(F)(F)F)n(-c3ccc(NC(=O)c4cccc(F)c4F)cc3)c2c1 [Compound 93, 2,3-Difluoro-N-[4-(2-trifluoromethyl-6-acetylamino-benzoimidazol-1-yl)-phenyl]-benzamide]
7 | 500 to 1000 | COc1ccc2c(c1)nc(C(F)(F)F)n2-c1ccc(NC(=O)c2ccc(Cl)cc2)nc1 [Compound 171, 4-Chloro-N-[5-(5-methoxy-2-trifluoromethyl-benzoimidazol-1-yl)-pyridin-2-yl]-benzamide]
8 | 500 to 1000 | COc1ccc(CC(=O)Nc2ccc(-n3c(C(F)(F)F)nc4cc(OC)ccc43)cc2)cc1 [Compound 92, 2-(4-Methoxy-phenyl)-N-[4-(2-trifluoromethyl-5-methoxy-benzoimidazol-1-yl)-phenyl]-acetamide]
9 | 500 to 1000 | COc1ccc2c(c1)nc(C(F)(F)F)n2-c1ccc(NC(=O)c2ccc(I)cc2)nc1 [Compound 182, 4-Iodo-N-[5-(5-methoxy-2-trifluoromethyl-benzoimidazol-1-yl)-pyridin-2-yl]-benzamide]
10 | 500 to 1000 | COc1ccc2c(c1)nc(C(F)(F)F)n2-c1ccc(NC(=O)c2csnc2C)nc1 [Compound 194, 3-Methyl-isothiazole-4-carboxylic acid [5-(5-methoxy-2-trifluoromethyl-benzoimidazol-1-yl)-pyridin-2-yl]-amide]
11 | 500 to 1000 | N#C/C(=C\c1ccc(-n2c(C(F)(F)F)nc3ccccc32)cc1)c1cccc(F)c1F [Compound 47, 1-(2,3-difluoro-phenyl)-3-[4-(2-trifluoromethyl-benzoimidazol-1-yl)-phenyl]-acrylonitrile]
12 | 500 to 1000 | O=C(Nc1cccc(F)c1F)c1ccc(-n2c(C(F)(F)F)nc3ccccc32)cc1 [Compound 46, N-(2,3-difluorophenyl)-4-(2-trifluoromethyl-benzoimidazol-1-yl)-benzamide]

same assay, conditions: Homo sapiens, PHA 2.5 μg/mL, 20 hours, binned values

Row | IC50 [nM] | SMILES
13 | 100 to 500 | COc1ccc2c(c1)nc(C(F)(F)F)n2-c1ccc(NC(=O)c2cccc(Br)c2)nc1 [Compound 191, 3-Bromo-N-[5-(5-methoxy-2-trifluoromethyl-benzoimidazol-1-yl)-pyridin-2-yl]-benzamide]
14 | > 1000 | COc1ccc2c(c1)nc(C(F)(F)F)n2-c1ccc(NC(=O)c2csnn2)nc1 [Compound 205, [1,2,3]Thiadiazole-4-carboxylic acid [5-(5-methoxy-2-trifluoromethyl-benzoimidazol-1-yl)-pyridin-2-yl]-amide]
15 | 100 to 500 | CCCCNc1ccc(-n2c(C(F)(F)F)nc3cc(OC)ccc32)cn1 [Compound 165, Butyl[5-(5-methoxy-2-trifluoromethyl-benzoimidazol-1-yl)-pyridin-2-yl]-amine]
16 | > 1000 | COc1ccc2c(c1)nc(C(F)(F)F)n2-c1ccc(NC(=O)C(C)C)nc1 [Compound 214, N-[5-(5-Methoxy-2-trifluoromethyl-benzoimidazol-1-yl)-pyridin-2-yl]-isobutyramide]
17 | 100 to 500 | CCC(C)C(=O)Nc1ccc(-n2c(C(F)(F)F)nc3cc(OC)ccc32)cn1 (centres unmarked) [Compound 168, N-[5-(5-Methoxy-2-trifluoromethyl-benzoimidazol-1-yl)-pyridin-2-yl]-2-methyl-butyramide]
18 | 100 to 500 | COc1ccc2c(c1)nc(C(F)(F)F)n2-c1ccc(NC(=O)c2cccc(Cl)c2)nc1 [Compound 179, 3-Chloro-N-[5-(5-methoxy-2-trifluoromethyl-benzoimidazol-1-yl)-pyridin-2-yl]-benzamide]
19 | < 100 | COc1ccc2c(c1)nc(C(F)(F)F)n2-c1ccc(NC(=O)c2cccc(Cl)c2Cl)nc1 [Compound 174, 2,3-Dichloro-N-[5-(5-methoxy-2-trifluoromethyl-benzoimidazol-1-yl)-pyridin-2-yl]-benzamide]
20 | < 100 | COc1ccc2c(c1)nc(C(F)(F)F)n2-c1ccc(NC(=O)c2ccccc2Br)nc1 [Compound 180, 2-Bromo-N-[5-(5-methoxy-2-trifluoromethyl-benzoimidazol-1-yl)-pyridin-2-yl]-benzamide]
21 | 100 to 500 | COC(=O)c1cccc(C(=O)Nc2ccc(-n3c(C(F)(F)F)nc4cc(OC)ccc43)cn2)c1 [Compound 192, N-[5-(5-Methoxy-2-trifluoromethyl-benzoimidazol-1-yl)-pyridin-2-yl]-isophthalamic acid methyl ester]
22 | > 1000 | CCNc1ccc(-n2c(C(F)(F)F)nc3cc(OC)ccc32)nc1 [Compound 162, Ethyl-[6-(5-methoxy-2-trifluoromethyl-benzoimidazol-1-yl)-pyridin-3-yl]-amine]
23 | < 100 | COc1ccc2c(c1)nc(C(F)(F)F)n2-c1ccc(NC(=O)c2ccc(Cl)cc2Cl)nc1 [Compound 176, 2,4-Dichloro-N-[5-(5-methoxy-2-trifluoromethyl-benzoimidazol-1-yl)-pyridin-2-yl]-benzamide]
24 | < 100 | COc1ccc2c(c1)nc(C(F)(F)F)n2-c1ccc(NC(=O)c2ccccc2I)nc1 [Compound 187, 2-Iodo-N-[5-(5-methoxy-2-trifluoromethyl-benzoimidazol-1-yl)-pyridin-2-yl]-benzamide]
25 | < 100 | COc1ccc2c(c1)nc(C(F)(F)F)n2-c1ccc(NC(=O)c2c(F)cccc2F)nc1 [Compound 163, 2,6-difluoro-N-(5-(5-methoxy-2-(trifluoromethyl)-1H-benzo[d]imidazol-1-yl)pyridin-2-yl)benzamide]
26 | < 100 | COc1ccc2c(c1)nc(C(F)(F)F)n2-c1ccc(NC(=O)C2CCCC2)nc1 [Compound 193, Cyclopentanecarboxylic acid [5-(5-methoxy-2-trifluoromethyl-benzoimidazol-1-yl)-pyridin-2-yl]-amide]
27 | 100 to 500 | O=C(Nc1ccc(-n2c(C(F)(F)F)nc3ccccc32)c(Cl)c1)c1cccc(F)c1F [Compound 25, 2,3-Difluoro-N-[2-.chloro-4-(2-trifluoromethyl-benzoimidazol-1-yl)-phenyl]-benzamide]
28 | < 100 | COc1ccc2c(c1)nc(C(F)(F)F)n2-c1ccc(NC(=O)c2cccc(C)c2C)nc1 [Compound 202, N-[5-(5-Methoxy-2-trifluoromethyl-benzoimidazol-1-yl)-pyridin-2-yl]-2,3-dimethyl-benzamide]
29 | > 1000 | Cc1nc2ccccc2n1-c1ccc(NC(=O)c2cccc(F)c2F)cc1 [Compound 59, 2,3-Difluoro-N-[4-(2-methyl-benzoimidazol-1-yl)-phenyl]-benzamide]
30 | < 100 | COc1ccc2c(c1)nc(C(F)(F)F)n2-c1ccc(NC(=O)c2c(F)cccc2Cl)nc1 [Compound 173, 2-Chloro-6-fluoro-N-[5-(5-methoxy-2-trifluoromethyl-benzoimidazol-1-yl)-pyridin-2-yl]-benzamide]
31 | 100 to 500 | CCCC(=O)Nc1ccc(-n2c(C(F)(F)F)nc3cc(OC)ccc32)cn1 [Compound 167, N-[5-(5-Methoxy-2-trifluoromethyl-benzoimidazol-1-yl)-pyridin-2-yl]-butyramide]
32 | < 100 | COc1ccc2c(c1)nc(C(F)(F)F)n2-c1ccc(NC(=O)c2ccccc2Cl)nc1 [Compound 178, 2-Chloro-N-[5-(5-methoxy-2-trifluoromethyl-benzoimidazol-1-yl)-pyridin-2-yl]-benzamide]

Row | SMILES | IC50 [nM]
33 | COc1ccc2c(c1)nc(C(F)(F)F)n2-c1ccc(NC(=O)c2cc([N+](=O)[O-])cc([N+](=O)[O-])c2)cc1 [Compound 81, 3,5-Dinitro-N-[4-(2-trifluoromethyl-5-methoxy-benzoimidazol-1-yl)-phenyl]-benzamide] | 100 to 500

tested on: IL-2, IL-4, IL-5, IL-13, GM-CSF, INF-γ and TNF-α; experiment: Inhibition of multiple cytokines in primary human PBMCs (summary statement); assay type: cell-based; conditions: PHA-stimulated PBMCs
Method: Cytokine production was measured using commercially available human ELISA assay kits (from Cell Science, Inc.) following the manufacturers instructions.

Row | SMILES | inhibition of IL-2, IL-4, IL-5, IL-13, GM-CSF, INF-γ and TNF-α (in words)
34 | CCCCc1ccc(C(=O)Nc2ccc(-n3c(C(F)(F)F)nc4cc(OC)ccc43)cc2)cc1 [Compound 66, 4-Butyl-N-[4-(2-trifluoromethyl-5-methoxy-benzoimidazol-1-yl)-phenyl]-benzamide] | potent inhibitors
35 | COc1ccc2c(c1)nc(C(F)(F)F)n2-c1ccc(NC(=O)c2ccc3c(c2)OCO3)cc1 [Compound 75, Benzo[1,3]dioxole-5-carboxylic acid {N-[4-(2-trifluoromethyl-5-methoxy-benzoimidazol-1-yl)-phenyl]} amide] | potent inhibitors
